Test results from ChEMBL document CHEMBL3885861, “Open TG-GATES”.

Species: Rattus norvegicus
Assay: Open TG-GATES - Regimen: Daily Repeat
Type: toxicity, organism-based, Sprague-Dawley
Set-up: regimen Daily Repeat, gender Male, age 6 weeks
Conditions: in vivo, po, 100 mg/kg, route gavage, dose level Low; for APTT / Bas / Eos / Fbg / Hb / Ht / Lym / MCH / MCHC / MCV / Mono / Neu / PT / Plat / RBC / Ret / WBC: tissue Blood; for KIDNEY_L / KIDNEY_R / KIDNEY_TOTAL: tissue Kidney; for LIVER: tissue Liver; for A/G / ALP / ALT / AST / BUN / CRE / Ca / Cl / DBIL / GLC / IP / K / LDH / Na / PL / RALB / TBIL / TC / TG / TP / gamma-GTP: tissue Plasma

Structure (SMILES): O=C(OC[C@H]1O[C@@H](OC(=O)c2cc(O)c(O)c(OC(=O)c3cc(O)c(O)c(O)c3)c2)[C@H](OC(=O)c2cc(O)c(O)c(OC(=O)c3cc(O)c(O)c(O)c3)c2)[C@@H](OC(=O)c2cc(O)c(O)c(OC(=O)c3cc(O)c(O)c(O)c3)c2)[C@@H]1OC(=O)c1cc(O)c(O)c(OC(=O)c2cc(O)c(O)c(O)c2)c1)c1cc(O)c(O)c(OC(=O)c2cc(O)c(O)c(O)c2)c1 [TANNIC ACID]
- TERMINAL_BW (72 h, time 3 day): 221.9 g
- APTT (72 h, time 3 day): 16.9 s
- Bas (72 h, time 3 day): 0%
- Eos (72 h, time 3 day): 1%
- Fbg (72 h, time 3 day): 234.4 mg/dL
- Hb (72 h, time 3 day): 13.2 g/dL
- Ht (72 h, time 3 day): 39.2%
- Lym (72 h, time 3 day): 72.6%
- MCH (72 h, time 3 day): 22.3 pg
- MCHC (72 h, time 3 day): 33.6%
- MCV (72 h, time 3 day): 66.4 fL
- Mono (72 h, time 3 day): 12.2%
- Neu (72 h, time 3 day): 14.4%
- PT (72 h, time 3 day): 11.5 s
- Plat (72 h, time 3 day): 111.4 x10_4/uL
- RBC (72 h, time 3 day): 590.2 x10_4/ul
- Ret (72 h, time 3 day): 8.8%
- WBC (72 h, time 3 day): 90.6 x10_2/uL
- KIDNEY_L (72 h, time 3 day): 1 g
- KIDNEY_R (72 h, time 3 day): 1 g
- KIDNEY_TOTAL (72 h, time 3 day): 2 g
- LIVER (72 h, time 3 day): 11.1 g
- A/G (72 h, time 3 day): 2.3
- ALP (72 h, time 3 day): 864 IU/L
- ALT (72 h, time 3 day): 33.4 IU/L
- AST (72 h, time 3 day): 61.4 IU/L
- BUN (72 h, time 3 day): 18.8 mg/dL
- CRE (72 h, time 3 day): 0.5 mg/dL
- Ca (72 h, time 3 day): 11 mg/dL
- Cl (72 h, time 3 day): 104.2 meq/L
- DBIL (72 h, time 3 day): 0 mg/dL
- GLC (72 h, time 3 day): 204.8 mg/dL
- IP (72 h, time 3 day): 8.6 mg/dL
- K (72 h, time 3 day): 4.8 meq/L
- LDH (72 h, time 3 day): 68.4 IU/L
- Na (72 h, time 3 day): 139.8 meq/L
- PL (72 h, time 3 day): 154.6 mg/dL
- RALB (72 h, time 3 day): 4 g/dL
- TBIL (72 h, time 3 day): 0.3 mg/dL
- TC (72 h, time 3 day): 84.6 mg/dL
- TG (72 h, time 3 day): 100.8 mg/dL
- TP (72 h, time 3 day): 5.7 g/dL
- gamma-GTP (72 h, time 3 day): 1.2 IU/L
- TERMINAL_BW ([…], time 7 day): 249.2 g
- TERMINAL_BW ([…], time 14 day): 296.1 g
- TERMINAL_BW ([…], time 28 day): 380.6 g
- APTT ([…], time 7 day): 16.3 s
- Bas ([…], time 7 day): 0%
- Eos ([…], time 7 day): 1%
- Fbg ([…], time 7 day): 221.6 mg/dL
- Hb ([…], time 7 day): 13.4 g/dL
- Ht ([…], time 7 day): 40.3%
- Lym ([…], time 7 day): 74.8%
- MCH ([…], time 7 day): 21 pg
- MCHC ([…], time 7 day): 33.3%
- MCV ([…], time 7 day): 63.3 fL
- Mono ([…], time 7 day): 7.4%
- Neu ([…], time 7 day): 16.8%
- PT ([…], time 7 day): 11 s
- Plat ([…], time 7 day): 122.5 x10_4/uL
- RBC ([…], time 7 day): 638.6 x10_4/ul
- Ret ([…], time 7 day): 6.5%
- WBC ([…], time 7 day): 119 x10_2/uL
- APTT ([…], time 14 day): 16.7 s
- Bas ([…], time 14 day): 0%
- Eos ([…], time 14 day): 1%
- Fbg ([…], time 14 day): 261 mg/dL
- Hb ([…], time 14 day): 14.3 g/dL
- Ht ([…], time 14 day): 42.9%
- Lym ([…], time 14 day): 74.5%
- MCH ([…], time 14 day): 20.9 pg
- MCHC ([…], time 14 day): 33.4%
- MCV ([…], time 14 day): 62.6 fL
- Mono ([…], time 14 day): 6.8%
- Neu ([…], time 14 day): 18%
- PT ([…], time 14 day): 11.5 s
- Plat ([…], time 14 day): 129.4 x10_4/uL
- RBC ([…], time 14 day): 685.8 x10_4/ul
- Ret ([…], time 14 day): 4.6%
- WBC ([…], time 14 day): 136 x10_2/uL
- APTT ([…], time 28 day): 15.9 s
- Bas ([…], time 28 day): 0%
- Eos ([…], time 28 day): 1.2%
- Fbg ([…], time 28 day): 230 mg/dL
- Hb ([…], time 28 day): 15.1 g/dL
- Ht ([…], time 28 day): 45%
- Lym ([…], time 28 day): 80.4%
- MCH ([…], time 28 day): 19.9 pg
- MCHC ([…], time 28 day): 33.5%
- MCV ([…], time 28 day): 59.5 fL
- Mono ([…], time 28 day): 5.8%
- Neu ([…], time 28 day): 12.4%
- PT ([…], time 28 day): 12 s
- Plat ([…], time 28 day): 116.4 x10_4/uL
- RBC ([…], time 28 day): 757.4 x10_4/ul
- Ret ([…], time 28 day): 2.8%
- WBC ([…], time 28 day): 142.1 x10_2/uL
- KIDNEY_L ([…], time 7 day): 1 g
- KIDNEY_R ([…], time 7 day): 1 g
- KIDNEY_TOTAL ([…], time 7 day): 2.1 g
- KIDNEY_L ([…], time 14 day): 1.1 g
- KIDNEY_R ([…], time 14 day): 1.2 g
- KIDNEY_TOTAL ([…], time 14 day): 2.3 g
- KIDNEY_L ([…], time 28 day): 1.4 g
- KIDNEY_R ([…], time 28 day): 1.5 g
- KIDNEY_TOTAL ([…], time 28 day): 2.9 g
- LIVER ([…], time 7 day): 12.2 g
- LIVER ([…], time 14 day): 13.7 g
- LIVER ([…], time 28 day): 15.5 g
- A/G ([…], time 7 day): 1.5
- ALP ([…], time 7 day): 796.4 IU/L
- ALT ([…], time 7 day): 32.2 IU/L
- AST ([…], time 7 day): 62.6 IU/L
- BUN ([…], time 7 day): 18.4 mg/dL
- CRE ([…], time 7 day): 0.5 mg/dL
- Ca ([…], time 7 day): 11.1 mg/dL
- Cl ([…], time 7 day): 103.2 meq/L
- DBIL ([…], time 7 day): 0.004 mg/dL
- GLC ([…], time 7 day): 207.4 mg/dL
- IP ([…], time 7 day): 8.3 mg/dL
- K ([…], time 7 day): 4.3 meq/L
- LDH ([…], time 7 day): 87.6 IU/L
- Na ([…], time 7 day): 138 meq/L
- PL ([…], time 7 day): 160.8 mg/dL
- RALB ([…], time 7 day): 3.6 g/dL
- TBIL ([…], time 7 day): 0.4 mg/dL
- TC ([…], time 7 day): 84.2 mg/dL
- TG ([…], time 7 day): 116.2 mg/dL
- TP ([…], time 7 day): 6 g/dL
- gamma-GTP ([…], time 7 day): 1.6 IU/L
- A/G ([…], time 14 day): 1.8
- ALP ([…], time 14 day): 726.5 IU/L
- ALT ([…], time 14 day): 32 IU/L
- AST ([…], time 14 day): 58.2 IU/L
- BUN ([…], time 14 day): 18.5 mg/dL
- CRE ([…], time 14 day): 0.6 mg/dL
- Ca ([…], time 14 day): 10.9 mg/dL
- Cl ([…], time 14 day): 102.8 meq/L
- DBIL ([…], time 14 day): 0.01 mg/dL
- GLC ([…], time 14 day): 207.5 mg/dL
- IP ([…], time 14 day): 8.3 mg/dL
- K ([…], time 14 day): 4.2 meq/L
- LDH ([…], time 14 day): 77 IU/L
- Na ([…], time 14 day): 140 meq/L
- PL ([…], time 14 day): 140.2 mg/dL
- RALB ([…], time 14 day): 3.9 g/dL
- TBIL ([…], time 14 day): 0.3 mg/dL
- TC ([…], time 14 day): 69.5 mg/dL
- TG ([…], time 14 day): 100.2 mg/dL
- TP ([…], time 14 day): 6.1 g/dL
- gamma-GTP ([…], time 14 day): 1.8 IU/L
- A/G ([…], time 28 day): 1.6
- ALP ([…], time 28 day): 659.6 IU/L
- ALT ([…], time 28 day): 34 IU/L
- AST ([…], time 28 day): 64.6 IU/L
- BUN ([…], time 28 day): 20.2 mg/dL
- CRE ([…], time 28 day): 0.6 mg/dL
- Ca ([…], time 28 day): 10.8 mg/dL
- Cl ([…], time 28 day): 106.4 meq/L
- DBIL ([…], time 28 day): 0.006 mg/dL
- GLC ([…], time 28 day): 196.8 mg/dL
- IP ([…], time 28 day): 7.4 mg/dL
- K ([…], time 28 day): 4.3 meq/L
- LDH ([…], time 28 day): 78.2 IU/L
- Na ([…], time 28 day): 139.4 meq/L
- PL ([…], time 28 day): 145.8 mg/dL
- RALB ([…], time 28 day): 3.8 g/dL
- TBIL ([…], time 28 day): 0.3 mg/dL
- TC ([…], time 28 day): 70.6 mg/dL
- TG ([…], time 28 day): 108 mg/dL
- TP ([…], time 28 day): 6.2 g/dL
- gamma-GTP ([…], time 28 day): 2 IU/L
